Experimental data from patent US9006216B2, “Biocidal aldehyde composition for oil and gas extraction” (priority 2009, dated 2015).

Columns and labels:
Pseudomonas aeruginosa [1] = assay: Chlorine dioxide and TTPC versus Pseudomonas aeruginosa, log reduction; format: cell-based; conditions: ClO2 of 10 ppm alone; 10^5 ml; 30 min exposure
Experimental: A test with chlorine dioxide (ClO2) and TTPC versus Pseudomonas aeruginosa was performed at 10^5 ml with ClO2 of 10 ppm. This alone gave a 1 log reduction in 30 min exposure. TTPC alone at 50 ppm gave a 2 log reduction. The combination of ClO2 and TTPC of 5 ppm and 10 ppm gave a 5 log reduction in 30 min.

[2] = 20-22 degrees C; high level disinfectant; cited from earlier work
Pseudomonas aeruginosa [3] = conditions: cited from earlier work
mycobacterial strains = conditions: cited from earlier work
[4] = tested on: sulfur reducing bacteria (SRB); assay: Efficacy in oil/gas fields on sulfur reducing bacteria; format: cell-based
Text: (§1) As such there is actually a slight increase in planktonic microbes which are more susceptible to biocide/TTPC effects. Individual biocides affect the physiology of the cell quite differently. […] This is an example of enhanced quantum complementarity. The importance of the environmental parameter cannot be underestimated based upon the foregoing results. TTPC has a similar margin of exposure as the quats for oil field imputability with friction reducers for killing of aerobic organisms. […] The minimum inhibitory concentration (MIC) for the TTPC usage is 50-500 ppm. Therefore it is safe regarding corrosiveness, an important facet in well treatment. […] The faster cidal action is due basically to the chemistry difference between amine quats and phosphonium salts. The ammonium quats have longer alkyl chains. Instead of amine the difference is a phosphonium ion but also importantly is the alkyl chain length. It has been determined that there is an optimal length for anti-bacterial effectiveness. It was dependent upon chain length and attachment moieties. […] Usually the longer chain was better but not in these cases. […] TTPC did. There are great differences between Gram + and Gram − bacteria in their cell walls. […] The Gram − wall is complicated. It has in addition to the wall of G+ an outer membrane of lipopolysaccharides and phospholipids that protect the cell.

aerobic organisms = assay: Killing of aerobic organisms in oil frac water (5 log reduction); format: cell-based; conditions: based upon a 5 log reduction in oil frac water
Text: as §1

[5] = tested on: acid-producing bacteria (APB); assay: Effective kill time of acid-producing bacteria; format: cell-based
Experimental: When TTPC was added to the core Glutaraldehyde or OPA as a substitute for dual chain quaternary ammonium the effective kill time was twice as fast (2×) based upon log reduction. Similarly, the TTPC reduced the effective kill time of acid-producing bacteria (APB) by almost 50%. Although the kill speed of TTPC alone was 20% slower than the glut/quat formula of copending U.S. patent application Ser. No. 12/584,650, when TTPC is combined with glutaraldehyde as a substitute for dual chain quaternary ammonium the kill time increased to four times 4× faster, evidencing the synergism of the present combination.

biofilm = assay: Biofilm removability; conditions: secondary oil and gas recovery
Text: as §1

## [O][Cl+][O-] [ClO2, chlorine dioxide]
Pseudomonas aeruginosa [1]
  log reduction: 1 log

## O=Cc1ccccc1C=O [OPA, ortho-phthalaldehyde]
[2]
  disinfection time: twelve
Pseudomonas aeruginosa [3]
  bactericidal activity against Pseudomonas aeruginosa: good
Mycobacterial strains
  bactericidal activity against mycobacterial strains: limited activity

## CCCCCCCCCCCCCC[P+](CCCC)(CCCC)CCCC.[Cl-] [TTPC, tributyl tetradecyl phosphonium chloride]
[4]
  efficacy on sulfur reducing bacteria (SRB): almost equally effective
Aerobic organisms
  effectiveness relative to the original glut/quat formula: twice as effective
[5]
  reduction of effective kill time of acid-producing bacteria (APB): ~50%
biofilm
  biofilm removability compared to quaternary ammonium: superior biofilm removability
